Test results taken from patent US8916575B2, “Quinazoline derivatives for the treatment of viral infections and further diseases” (Janssen R&D Ireland, priority 2011, dated 2014).
Marks after values point to notes of the source that are not given here.

How the values were obtained:
[1] = tested on: interferon-stimulated responsive elements (ISRE); experiment: Activation of ISRE promoter elements by conditioned media from PBMC (HEK-ISREluc); type: cell-based, human; set-up: unit not given here; settings: compound applied to PBMCs, supernatant transferred to HEK-ISREluc cells, 24 hours
Method: The potential of compounds to induce IFN-I was also evaluated by measuring the activation of interferon-stimulated responsive elements (ISRE) by conditioned media from PBMC. The ISRE element of sequence GAAACTGAAACT is highly responsive to the STAT1-STAT2-IRF9 transcription factor, activated upon binding of IFN-I to their receptor IFNAR (Clontech, PT3372-5W). The plasmid pISRE-Luc from Clontech (ref. 631913) contains 5 copies of this ISRE element, followed by the firefly luciferase ORF. A HEK293 cell line stably transfected with pISRE-Luc (HEK-ISREluc) was established to profile of the conditioned PBMC cell culture media.
Briefly, PBMCs were prepared from buffy coats of at least two donors using a standard Ficoll centrifugation protocol. Isolated PBMCs were resuspended in RPMI medium supplemented with 10% human AB serum and 2×10^5 cells/well were dispensed into 384-well plates containing compounds (70 μL total volume). After overnight incubation, 10 μL of supernatant was transferred to 384-well plates containing 5×10^3 HEK-ISREluc cells/well in 30 μL (plated the day before). Following 24 hours of incubation, activation of the ISRE elements was measured by assaying luciferase activity using 40 μL/well Steady Lite Plus substrate (Perkin Elmer) and measured with ViewLux ultraHTS microplate imager (Perkin Elmer). The stimulating activity of each compound on the HEK-ISREluc cells was reported as LEC value, defined as the compound concentration applied to the PBMCs resulting in a luciferase activity at least two fold above the standard deviation of the assay. The LEC in turn indicates the degree of ISRE activation on transfer of a defined amount of PBMC culture medium. Recombinant interferon α-2a (Roferon-A) was used as a standard control compound.

human TLR7 = target: T1, human TLR7 (Homo sapiens, UniProt Q9NYK1); experiment: TLR7 wild type NFκB-luc cellular reporter assay; type: cell-based; set-up: unit not given here; settings: for TLR7-wt (LEC): second part of table
T1 construct: expressed in transfected cells; host or cells: HEK293
T1 sequence (Q9NYK1 27-1049): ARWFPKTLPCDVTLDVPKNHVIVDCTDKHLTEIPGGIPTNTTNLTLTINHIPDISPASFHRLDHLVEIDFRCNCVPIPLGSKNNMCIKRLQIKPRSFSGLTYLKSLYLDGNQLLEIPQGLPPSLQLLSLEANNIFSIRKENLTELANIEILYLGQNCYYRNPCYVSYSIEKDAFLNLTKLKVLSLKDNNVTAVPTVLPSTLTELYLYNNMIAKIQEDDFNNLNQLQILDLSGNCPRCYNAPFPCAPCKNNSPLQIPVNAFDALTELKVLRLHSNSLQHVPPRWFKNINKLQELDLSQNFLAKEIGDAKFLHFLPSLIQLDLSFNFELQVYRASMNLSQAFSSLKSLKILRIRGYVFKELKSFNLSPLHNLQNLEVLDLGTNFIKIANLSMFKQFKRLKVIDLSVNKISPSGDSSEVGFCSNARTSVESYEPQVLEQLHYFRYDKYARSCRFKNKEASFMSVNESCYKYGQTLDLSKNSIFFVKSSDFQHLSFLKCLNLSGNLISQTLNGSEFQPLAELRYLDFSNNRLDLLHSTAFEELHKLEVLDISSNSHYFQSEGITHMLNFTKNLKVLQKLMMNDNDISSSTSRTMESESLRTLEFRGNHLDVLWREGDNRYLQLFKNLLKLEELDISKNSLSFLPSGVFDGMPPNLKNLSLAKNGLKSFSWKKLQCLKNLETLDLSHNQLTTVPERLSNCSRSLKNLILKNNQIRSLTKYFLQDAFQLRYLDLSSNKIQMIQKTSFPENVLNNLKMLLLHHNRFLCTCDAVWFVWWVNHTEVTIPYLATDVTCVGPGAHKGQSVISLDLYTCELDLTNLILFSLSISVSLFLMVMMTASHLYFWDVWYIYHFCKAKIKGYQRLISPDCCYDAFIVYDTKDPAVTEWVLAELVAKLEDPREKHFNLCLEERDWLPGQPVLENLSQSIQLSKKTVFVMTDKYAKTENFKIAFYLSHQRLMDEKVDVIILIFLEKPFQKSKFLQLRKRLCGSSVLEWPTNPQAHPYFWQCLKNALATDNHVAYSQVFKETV
Method: The ability of compounds to activate human TLR7 and/or TLR8 was assessed in a cellular reporter assay using HEK293 cells transiently transfected with a TLR7 or TLR8 expression vector and NFκB-luc reporter construct. In one instance the TLR expression construct expresses the respective wild type sequence or a mutant sequence comprising a deletion in the second leucine-rich repeat of the TLR.
Briefly, HEK293 cells were grown in culture medium (DMEM supplemented with 10% FCS and 2 mM Glutamine). For transfection of cells in 10 cm dishes, cells were detached with Trypsin-EDTA, transfected with a mix of CMV-TLR7 or TLR8 plasmid (750 ng), NFκB-luc plasmid (375 ng) and a transfection reagent and incubated 24 hours at 37° C. in a humidified 5% CO2 atmosphere. Transfected cells were then detached with Trypsin-EDTA, washed in PBS and resuspended in medium to a density of 1.67×10^5 cells/mL. Thirty microliters of cells were then dispensed into each well in 384-well plates, where 10 μL of compound in 4% DMSO was already present. […] Dose response curves were generated from measurements performed in quadruplicates. Lowest effective concentrations (LEC) values, defined as the concentration that induces an effect which is at least two fold above the standard deviation of the assay, were determined for each compound.

[2] = HEK293 NFκB-luc reporter, 6 hours incubation

Row | Compound | TLR7-wt (LEC) (human TLR7; [2]) | HEK-ISRE luc (LEC) [1] | TLR7-wt_LEC (human TLR7; HEK293 NFκB-luc reporter, 6 hours incubation, lowest effective concentration) | TLR7-wt_LEC (human TLR7; Assay run at 48 hours)
1 | CCCC[C@@H](CO)Nc1nc(N)nc2c(F)cccc12 [Compound 59] | 0.29 | 0.05 |  | 
2 | CCC[C@@H](CCO)Nc1nc(N)nc2ccc(OC)cc12 [Compound 79] | 11.87 | 2.07 |  | 
3 | CCCCNc1nc(N)nc2cc(OC)c(OCc3ccccc3)cc12 [Compound 89] | 1.84 | >24 |  | 
4 | CCCC[C@@H](CCO)Nc1nc(N)nc2c(F)cccc12 [Compound 81] | 0.11 | 0.05 |  | 
5 | CCC[C@@H](CO)Nc1nc(N)nc2c(C)cccc12 [Compound 43] | 4.54 | 0.59 |  | 
6 | CCCC[C@@H](CO)Nc1nc(N)nc2cccc(C)c12 [Compound 52] | 0.41 | 0.03 |  | 
7 | CCC[C@@H](CO)Nc1nc(N)nc2cc(F)c(F)cc12 [Compound 72] | 2.59 | 0.05 |  | 
8 | CCCCNc1nc(N)nc2cc(OC)c(OC)cc12 [Compound 1] |  |  | 5.0 | 
9 | CCCC[C@@H](CO)Nc1nc(N)nc2ccc(OC)cc12 [Compound 77] | 3.48 | 1.93 |  | 
10 | CCCCNc1nc(N)nc2cccc(Cl)c12 [Compound 41] | 0.99 | 0.17 |  | 
11 | CCC[C@@H](CCO)Nc1nc(N)nc2c(F)cccc12 [Compound 63] | 0.29 | 0.04 |  | 
12 | CCCC[C@@H](CCO)Nc1nc(N)nc2cc(OC)c(OC)cc12 [Compound 3] |  |  |  | 4.0 *
13 | CCCC[C@@H](CCO)Nc1nc(N)nc2cccc(C)c12 [Compound 75] | 0.14 | 0.02 |  | 
14 | CCC[C@@H](CCO)Nc1nc(N)nc2ccc(Oc3ccc(C(F)(F)F)cc3)cc12 [Compound 29] | 11.13 | >23.81 |  | 
15 | CCCC[C@@H](CO)Nc1nc(N)nc2ccc(C)cc12 [Compound 51] | 0.60 | 0.09 |  | 
16 | CCC[C@@H](CCO)Nc1nc(N)nc2ccc(F)cc12 [Compound 65] | 0.94 | 0.56 |  | 
17 | CCC[C@@H](CCO)Nc1nc(N)nc2ccc(CC)cc12 [Compound 25] | 0.57 | 0.16 |  | 
18 | CCCCNc1nc(N)nc2cccc(C)c12 [Compound 36] | 0.47 | 0.32 |  | 
19 | CCC[C@@H](CCO)Nc1nc(N)nc2ccc(Oc3ccc(C(F)(F)F)cc3Cl)cc12 [Compound 27] | 12.95 | 14.21 |  | 

Continued, in another order:

Row | TLR7-wt (LEC) (human TLR7; [2]) | Compound | HEK-ISRE luc (LEC) [1] | TLR7-wt_LEC (human TLR7; HEK293 NFκB-luc reporter, 6 hours incubation, lowest effective concentration) | TLR7-wt_LEC (human TLR7; Assay run at 48 hours)
20 | 0.26 | CCCC[C@@H](CO)Nc1nc(N)nc2cc(OC)ccc12 [Compound 76] | 0.09 |  | 
21 | 1.02 | CCC[C@@H](CO)Nc1nc(N)nc2cccc(Cl)c12 [Compound 71] | 0.03 |  | 
22 | 0.67 | CCC[C@@H](CO)Nc1nc(N)nc2c(F)cccc12 [Compound 47] | 0.05 |  | 
23 | 0.20 | CCC[C@@H](CCO)Nc1nc(N)nc2cc(OC)ccc12 [Compound 78] | 0.04 |  | 
24 | 0.32 | CCC[C@@H](CO)Nc1nc(N)nc2cccc(F)c12 [Compound 50] | 0.01 |  | 
25 | 0.51 | CCCCNc1nc(N)nc2ccc(Br)cc12 [Compound 85] | 0.21 |  | 
26 | 0.41 | CCCCNc1nc(N)nc2cccc(OC)c12 [Compound 9] | 0.10 |  | 
27 | 0.94 | CCCCNc1nc(N)nc2cc(OC)ccc12 [Compound 39] | 0.15 |  | 
28 | 10.77 | CCC[C@@H](CO)Nc1nc(N)nc2ccc(OC)cc12 [Compound 57] | 2.08 |  | 
29 | 0.06 | CCC[C@@H](CCO)Nc1nc(N)nc2cc(C)ccc12 [Compound 53] | 0.02 |  | 
30 | 0.16 | CCCCNc1nc(N)nc2c(F)cccc12 [Compound 37] | 0.07 |  | 
31 | 0.13 | CCCCNc1nc(N)nc2cc(CO)ccc12 [Compound 18] | 0.05 |  | 
32 | 0.18 | CCC[C@@H](CO)Nc1nc(N)nc2cccc(OC)c12 [Compound 58] | 0.04 |  | 
33 | 0.22 | CCC[C@@H](CCO)Nc1nc(N)nc2cccc(F)c12 [Compound 66] | 0.06 |  | 
34 | 0.04 | CCCC[C@@H](CCO)Nc1nc(N)nc2cc(F)ccc12 [Compound 82] | 0.04 |  | 
35 | 4.57 | CC[C@H](C)[C@@H](CO)Nc1nc(N)nc2ccc(F)cc12 [Compound 68] | 0.64 |  | 
36 | 0.08 | CCCCNc1nc(N)nc2cccc(OCCOC)c12 [Compound 11] | 0.12 |  | 
37 | 0.93 | CCCCNc1nc(N)nc2ccc(CO)cc12 [Compound 24] | 0.14 |  | 
38 | 2.09 | CCC[C@@H](CO)Nc1nc(N)nc2ccc(F)cc12 [Compound 49] | 0.13 |  | 
39 | 0.03 | CCCC[C@@H](CCO)Nc1nc(N)nc2cc(C)ccc12 [Compound 73] | 0.02 |  | 
40 | >25 | CC[C@H](C)[C@@H](CO)Nc1nc(N)nc2ccc(OC)cc12 [Compound 80] | >24 |  | 
41 | 0.41 | CCC[C@@H](CO)Nc1nc(N)nc2ccc(C)cc12 [Compound 45] | 0.04 |  | 
42 | 0.44 | CCCC[C@@H](CCO)Nc1nc(N)nc2cccc(F)c12 [Compound 84] | 0.09 |  | 
43 | 0.57 | CCCC[C@@H](CO)Nc1nc(N)nc2ccc(F)cc12 [Compound 61] | 0.12 |  | 
44 | 0.54 | CCC[C@@H](CCO)Nc1nc(N)nc2ccc(C)cc12 [Compound 54] | 0.18 |  | 
45 | 10.77 | CCC[C@@H](CO)Nc1nc(N)nc2ccc(CO)cc12 [Compound 34] | 0.39 |  | 
46 | 2.06 | CCCCNc1nc(N)nc2cc(Cl)c3c(c12)OCCO3 [Compound 28] | 1.11 |  | 
